Columns and labels:
[1] = Aspirin-induced gastric damage; assay type: in vivo, rat; conditions: 10 mg/kg PO
Description: Aspirin-induced gastric damage was assessed in groups of 10 rats each.
All animals were fasted for 24 hours before and throughout the experiment. Drug or vehicle was given 10 minutes before an oral dose of 1 mL of a 45-mg/mL suspension of aspirin in 0.5% carboxymethylcellulose (CMC).
The animals were sacrificed five hours after aspirin administration and the stomachs removed and opened for examination.

[2] = system: LoVo cells; assay: In vitro proliferation of LoVo cells (tetrazolium salt colorimetric assay); assay type: cell-based, human
Description: LoVo was obtained from the American Tissue Type Collection (ATCC CCL 229). Five×10^3 to 1×10^4 LoVo cells were cultured in 200 μL of serum containing RPMI in 96-well flat-bottomed titre plates for 24 hours. […] Cell proliferation was measured indirectly using a tetrazolium salt colorimetric assay for cellular respiration (Merlin JL, Azzi S, Lignon D, Ramacci C, Zeghari N, Guillemin F. MTT assays allow quick and reliable measurement of the response of human tumor cell to photodynamic therapy. Eur. J. Cancer, 28(8/9):1452-1458 (1992)).

[3] = Palatable Diet Feeding assay; assay type: in vivo, rat; conditions: dose producing 50% of the maximum effect possible (zero food intake)
Description: In the Palatable Diet Feeding assay, adult male Hooded Lister rats weighing between 200-400 g were housed individually and trained to eat a palatable diet. This diet consisted of Nestles sweetened condensed milk, powdered rat food and rat water which when blended together set to a firm consistency. […] The intake of palatable diet was measured by weighing the food container before and after the 30-minute access period (limits of accuracy 0.1 g). Care was taken to collect and correct for any spillage of the diet. Rats had free access to pellet food and water except during the 30-minute test period.
After the training period, dose-response curves were constructed for CCK8 and several representative compounds of the present invention (n=8-10 rats per dose level).

[4] = Light/dark exploration test (anxiolytic activity); assay type: in vivo, mouse
Description: In FIG. 2 the number of mice was 5 and the pretreatment time was 40 minutes. The compound was given p.o. in 0.1, 1, and 10 mg/kg doses.
The apparatus was an open-topped box, 45 cm long, 27 cm wide, and 27 cm high, divided into a small (2/5) area and a large (3/5) area by a partition that extended 20 cm above the walls. There was a 7.5×7.5 cm opening in the partition at floor level. The small compartment was painted black and the large compartment white. The floor of each compartment was marked into 9 cm squares. The white compartment was illuminated by a 100-watt tungsten bulb 17 cm above the box and the black compartment by a similarly placed 60-watt red bulb. The laboratory was illuminated with red light.
All tests were performed between 13 hundred hours, 0 minutes and 18 hundred hours, 0 minutes. Each mouse was tested by placing it in the center of the white area and allowing it to explore the novel environment for five minutes. Its behavior was recorded on videotape and the behavioral analysis was performed subsequently from the recording. Five parameters were measured: the latency to entry into the dark compartment, the time spent in each area, the number of transitions between compartments, the number of lines crossed in each compartment, and the number of rears in each compartment.
Drugs were dissolved in water or saline and administered either subcutaneously, intraperitoneally, or by mouth (PO) via a stomach needle.

[5] = Rat Social Interaction Test; assay type: in vivo; conditions: 0,001 to 1.0 mg/kg s.c., paired rats
Description: (Costall, B., University of Bradford)

[6] = 1 mg/kg SC, five-minute measurement periods

CC(Cc1c[nH]c2ccccc12)(NC(=O)OC1C2CC3CC(C2)CC1C3)C(=O)NCC(NC(=O)CCC(=O)O)c1ccccc1 (stereo not drawn) [Example 20, [R-(R*,R*)-4-[[2-[[3-(1H-indol-3-yl)-2-methyl-1-oxo-2-[[(tricyclo[3.3.1.1^3,7]dec-2-yloxy)carbonyl]amino]propyl]amino]-1-phenylethyl]amino]-4-oxobutanoic acid]
reduction in ulcer formation [1]: 48%
ulcer score ([1]; ±SD, saline control 12.1±6.85): 6.3±4.14
cellular proliferation expressed as a percentage of control ([2]; 10^-1 M, 24 hours): 58.93±7.30%
cellular proliferation expressed as a percentage of control ([2]; 10^-1 M, 48 hours): 82.60±2.33%
cellular proliferation expressed as a percentage of control ([2]; 10^-1 M, 72 hours): 80.53±3.06%
cellular proliferation expressed as a percentage of control ([2]; 10^-7 M, 24 hours): 81.60±6.62%
cellular proliferation expressed as a percentage of control ([2]; 10^-7 M, 48 hours): 95.33±2.50%
cellular proliferation expressed as a percentage of control ([2]; 10^-7 M, 72 hours): 84.71±6.97%
cellular proliferation expressed as a percentage of control ([2]; 10^-8 M, 24 hours): 70.13±7.15%
cellular proliferation expressed as a percentage of control ([2]; 10^-8 M, 48 hours): 93.20±4.04%
cellular proliferation expressed as a percentage of control ([2]; 10^-8 M, 72 hours): 85.93±4.19%
cellular proliferation expressed as a percentage of control ([2]; 10^-9 M, 24 hours): 62.47±7.20%
cellular proliferation expressed as a percentage of control ([2]; 10^-9 M, 48 hours): 82.73±2.97%
cellular proliferation expressed as a percentage of control ([2]; 10^-9 M, 72 hours): 79.07±3.18%
cellular proliferation expressed as a percentage of control ([2]; 10^-11 M, 24 hours, LoVo, serum-free RPMI): 66.47±6.72%
cellular proliferation expressed as a percentage of control ([2]; 10^-11 M, 48 hours): 80.47±2.64%
cellular proliferation expressed as a percentage of control ([2]; 10^-11 M, 72 hours): 78.87±3.25%
concentrations with significant inhibition ([2]; after 24 and 72 hours (ANOVA)): 10^-11 to 10^-8 M
concentrations with significant inhibition ([2]; at 48 hours (ANOVA)): 10^-11 to 10^-9 M
time of maximum inhibition ([2]; cultures not refed with compound): 24 h
Inhibition of Feeding on Rat Palatable Diet Assay I.P. MPE50 [3]: 17.4 mg/kg
time spent in the light area of the test box ([4]; 1 mg/kg PO): significantly (p <0.01) increased the time spent in the light area
crossings into the dark area [4, 6]: 24
crossings into the light area [4, 6]: 85
anxiolytic activity, orally administered (FIG. 2) ([4]; p.o. 0.1, 1, and 10 mg/kg, pretreatment 40 minutes): effectiveness
anxiolytic activity by the subcutaneous route ([4]; subcutaneous): active
time spent in social interaction compared with control (FIG. 13) [5]: increase in time spent in social interaction
